Assay results: PubChem BioAssay (NCI)
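Grown in 96-well plates, cells were treated for 48 hours with each compound at five concentrations. Insufficient inhibition: endpoint recorded as highest concentration tested. Abbreviation: GI50, concentration required for 50% inhibition of growth. Definition used: TGI = concentration required for complete inhibition of growth.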

Tests used:
Test in all cases: NCI anticancer screen, dose series, 48 h
[1] = test system: OVCAR-4 ovarian
[2] = test system: M19-MEL melanoma
[3] = test system: SR leukemia
[4] = test system: UACC-257 melanoma
[5] = test system: HOP-62 NSCLC
[6] = test system: ACHN renal
[7] = test system: DMS 273 small cell lung
[8] = test system: UO-31 renal
[9] = test system: K-562 leukemia
[10] = test system: NCI-H23 lung
[11] = test system: HL-60(TB) leukemia
[12] = test system: SNB-19 CNS
[13] = test system: A549 NSCLC
[14] = test system: NCI-H522 lung
[15] = test system: HOP-92 NSCLC
[16] = test system: 786-0 renal
[17] = test system: SF-539 CNS
[18] = test system: RPMI-8226 leukemia
[19] = test system: IGROV1 ovarian
[20] = test system: HCT-116 colon
[21] = test system: MALME-3M melanoma
[22] = test system: CCRF-CEM leukemia
[23] = test system: MOLT-4 leukemia
[24] = test system: CAKI-1 renal
[25] = test system: SNB-78 CNS
[26] = test system: SW-620 colon
[27] = test system: SK-MEL-5 melanoma
[28] = test system: HOP-18 NSCLC
[29] = test system: TK-10 renal
[30] = test system: SNB-75 CNS
[31] = test system: M14 melanoma
[32] = test system: SK-MEL-28 melanoma
[33] = test system: DLD-1 colon
[34] = test system: UACC-62 melanoma
[35] = test system: A498 renal
[36] = test system: HCC-2998 colon
[37] = test system: SF-295 CNS
[38] = test system: SN12C renal
[39] = test system: HT29 colon
[40] = test system: NCI-H226 lung
[41] = test system: U251 CNS
[42] = test system: OVCAR-8 ovarian
[43] = test system: BT-549 breast
[44] = test system: KM12 colon
[45] = test system: LXFL 529 NSCLC
[46] = test system: RXF 393 renal
[47] = test system: MCF7 breast
[48] = test system: T-47D breast
[49] = test system: OVCAR-5 ovarian
[50] = test system: SK-MEL-2 melanoma
[51] = test system: MDA-MB-435
[52] = test system: SK-OV-3 ovarian
[53] = test system: EKVX NSCLC
[54] = test system: KM20L2 colon
[55] = test system: COLO 205 colon
[56] = test system: OVCAR-3 ovarian
[57] = test system: HCT-15 colon
[58] = test system: DU-145 prostate
[59] = test system: SF-268 CNS
[60] = test system: HS 578T breast
[61] = test system: LOX IMVI melanoma
[62] = test system: NCI-H460 lung
[63] = test system: PC-3 prostate
[64] = test system: MDA-MB-231 breast
[65] = test system: DMS 114 small cell lung

O=C1C(C(Nc2ccccc2)c2ccccc2)=C([O-])c2ccccc21.O=C1C(C(Nc2ccccc2)c2ccccc2)=C([O-])c2ccccc21.[Co+2] (configuration not stated)
GI50 [1]: 3.38 µM | TGI [1]: 9.92 µM | GI50 [2]: 15.2 µM | TGI [2]: > 100 µM | GI50 [3]: 6.07 µM | TGI [3]: > 100 µM | GI50 [4]: 5.04 µM | TGI [4]: 46.4 µM | GI50 [5]: > 100 µM | TGI [5]: > 100 µM | GI50 [6]: 6.62 µM | TGI [6]: > 100 µM | GI50 [7]: 4.08 µM | TGI [7]: > 100 µM | GI50 [8]: 2.69 µM | TGI [8]: 53.8 µM | GI50 [9]: 3.2 µM | TGI [9]: > 100 µM | GI50 [10]: 4.3 µM | TGI [10]: > 100 µM | GI50 [11]: 3.72 µM | TGI [11]: > 100 µM | GI50 [12]: > 100 µM | TGI [12]: > 100 µM | GI50 [13]: 4.2 µM | TGI [13]: > 100 µM | GI50 [14]: 2.31 µM | TGI [14]: 5.43 µM | GI50 [15]: 6.92 µM | TGI [15]: > 100 µM | GI50 [16]: 7.11 µM | TGI [16]: > 100 µM | GI50 [17]: 3.3 µM | TGI [17]: > 100 µM | GI50 [18]: 2.8 µM | TGI [18]: > 100 µM | GI50 [19]: 5.6 µM | TGI [19]: > 100 µM | GI50 [20]: 3.15 µM | TGI [20]: > 100 µM | GI50 [21]: 5.48 µM | TGI [21]: > 100 µM | GI50 [22]: 4.96 µM | TGI [22]: > 100 µM | GI50 [23]: 4.04 µM | TGI [23]: > 100 µM | GI50 [24]: 18.7 µM | TGI [24]: > 100 µM | GI50 [25]: > 100 µM | TGI [25]: > 100 µM | GI50 [26]: 4.75 µM | TGI [26]: > 100 µM | GI50 [27]: 3.78 µM | TGI [27]: > 100 µM | GI50 [28]: 11.5 µM | TGI [28]: > 100 µM | GI50 [29]: 5.48 µM | TGI [29]: 86 µM | GI50 [30]: 4.49 µM | TGI [30]: 79.8 µM | GI50 [31]: 3.86 µM | TGI [31]: > 100 µM | GI50 [32]: 5.55 µM | TGI [32]: > 100 µM | GI50 [33]: 4.02 µM | TGI [33]: > 100 µM | GI50 [34]: 5.45 µM | TGI [34]: > 100 µM | GI50 [35]: 5.13 µM | TGI [35]: > 100 µM

Cc1cc(=O)[nH]c(NN2C(Cl)C(=O)C2c2ccc(O)cc2)n1 (configuration not stated)
TGI [1]: 19 µM | TGI [36]: 23.3 µM | TGI [2]: 23.1 µM | TGI [3]: > 25.6 µM | TGI [4]: 26.1 µM | TGI [5]: 19 µM | TGI [37]: 21.4 µM | TGI [38]: 23.5 µM | TGI [6]: 22 µM | TGI [39]: 35.1 µM | TGI [7]: 18.1 µM | TGI [40]: 32.6 µM | TGI [8]: 22.4 µM | TGI [11]: 7.69 µM | TGI [12]: 23.2 µM | TGI [41]: 18.4 µM | TGI [13]: 31.2 µM | TGI [14]: 32.8 µM | TGI [42]: 28.6 µM | TGI [43]: 27.1 µM | TGI [15]: 29.4 µM | TGI [44]: 25 µM | TGI [45]: 22.2 µM | TGI [16]: 18.2 µM | TGI [46]: 17.2 µM | TGI [17]: 24.3 µM | TGI [47]: 27.4 µM | TGI [18]: 5.59 µM | TGI [19]: 21.7 µM | TGI [48]: 32.2 µM | TGI [20]: 14.3 µM | TGI [21]: 30.7 µM | TGI [23]: > 79.2 µM | TGI [24]: 20.4 µM | TGI [25]: 24.2 µM | TGI [26]: 28.9 µM | TGI [49]: 35.2 µM | TGI [27]: 21.5 µM | TGI [50]: 29.5 µM | TGI [28]: 27.8 µM | TGI [51]: 20.5 µM | TGI [52]: 23.4 µM | TGI [29]: 31.7 µM | TGI [53]: 18.3 µM | TGI [54]: 46.5 µM | TGI [55]: 40.7 µM | TGI [56]: 18.9 µM | TGI [57]: 15.4 µM | TGI [58]: 22.8 µM | TGI [30]: 7.92 µM | TGI [59]: 32.3 µM | TGI [31]: 24.6 µM | TGI [32]: 24.1 µM | TGI [60]: 51.7 µM | TGI [61]: 7.27 µM | TGI [34]: 18.7 µM | TGI [62]: 18.1 µM | TGI [35]: 21.5 µM | TGI [63]: 26.8 µM | TGI [64]: 30 µM

COC1CC(OC)C2OC(c3ccccc3)OCC2O1 (configuration not stated)
TGI [36]: > 100 µM | TGI [2]: > 100 µM | TGI [3]: > 100 µM | TGI [4]: > 100 µM | TGI [5]: > 100 µM | TGI [37]: > 100 µM | TGI [38]: > 100 µM | TGI [6]: > 100 µM | TGI [39]: > 100 µM | TGI [8]: > 100 µM | TGI [9]: > 100 µM | TGI [10]: > 100 µM | TGI [11]: > 100 µM | TGI [41]: > 100 µM | TGI [13]: > 100 µM | TGI [14]: > 100 µM | TGI [42]: > 100 µM | TGI [44]: > 100 µM | TGI [45]: > 100 µM | TGI [16]: > 100 µM | TGI [46]: > 100 µM | TGI [17]: > 100 µM | TGI [19]: > 100 µM | TGI [20]: > 100 µM | TGI [21]: > 100 µM | TGI [22]: > 100 µM | TGI [23]: > 100 µM | TGI [25]: > 100 µM | TGI [26]: > 100 µM | TGI [49]: > 100 µM | TGI [27]: > 100 µM | TGI [50]: > 100 µM | TGI [28]: > 100 µM | TGI [52]: > 100 µM | TGI [29]: > 100 µM | TGI [53]: > 100 µM | TGI [54]: > 100 µM | TGI [56]: > 100 µM | TGI [57]: > 100 µM | TGI [30]: > 100 µM | TGI [31]: > 100 µM | TGI [32]: > 100 µM | TGI [33]: > 100 µM | TGI [61]: > 100 µM | TGI [34]: > 100 µM | TGI [62]: > 100 µM

CN(C)c1ccc(/C=C(/C(=O)O)c2csc(-c3nc(/C(=C\c4ccc(N(C)C)cc4)C(=O)O)cs3)n2)cc1
TGI [36]: > 100 µM | TGI [2]: > 100 µM | TGI [4]: > 100 µM | TGI [5]: > 100 µM | TGI [37]: > 100 µM | TGI [38]: > 100 µM | TGI [6]: > 100 µM | TGI [39]: > 100 µM | TGI [40]: > 100 µM | TGI [8]: > 100 µM | TGI [9]: > 100 µM | TGI [10]: > 100 µM | TGI [11]: > 100 µM | TGI [41]: > 100 µM | TGI [13]: > 100 µM | TGI [42]: > 100 µM | TGI [15]: > 100 µM | TGI [44]: > 100 µM | TGI [45]: > 100 µM | TGI [16]: > 100 µM | TGI [46]: > 100 µM | TGI [17]: > 100 µM | TGI [18]: > 100 µM | TGI [19]: > 100 µM | TGI [20]: > 100 µM | TGI [21]: > 100 µM | TGI [22]: > 100 µM | TGI [23]: > 100 µM | TGI [24]: > 100 µM | TGI [25]: > 100 µM | TGI [26]: > 100 µM | TGI [49]: > 100 µM | TGI [27]: > 100 µM | TGI [50]: > 100 µM | TGI [52]: > 100 µM | TGI [29]: > 100 µM | TGI [53]: > 100 µM | TGI [54]: > 100 µM | TGI [55]: > 100 µM | TGI [56]: > 100 µM | TGI [57]: > 100 µM | TGI [30]: > 100 µM | TGI [65]: > 100 µM | TGI [59]: > 100 µM | TGI [31]: > 100 µM | TGI [32]: > 100 µM | TGI [33]: > 100 µM | TGI [61]: > 100 µM | TGI [34]: > 100 µM | TGI [62]: > 100 µM | TGI [35]: > 100 µM
